Where two headings read alike, the source gives them in different places.
Tests used:
[1] = molecular target: T1, HiBit-tagged wild-type GPR61 (Homo sapiens, UniProt Q9BZJ8); assay: Receptor expression studies (HiBit surface and total expression), CHO-K1 cells; type: cell-based; conditions: effect of compound, Fig. 2b, c
T1 construct: expressed in transfected cells; host or cells: CHO-K1, transient (Fugene6)
From the text: The human GPR61 (reference sequence NM_031936.4) cDNA was synthesized and subcloned into pcDNA5/FRT/TO (Thermo Fisher, Pittsburgh, PA). The pcDNA5/FRT/TO/ human GPR61 plasmid was then transfected into the Flp-In™-CHO Cell Line (Thermo Fisher, Pittsburgh, PA) and a doxycycline-inducible clonal cell line was selected (CHO TREx hGPR61 WT). Sequences encoding untagged and HiBit/hemagglutinin (HA)-tagged versions of the wild-type human GPR61 were synthesized and cloned into pcDNA3.1. The HiBit ([…]) and HA ([…]) tags were sequentially included after the N-terminal initiator methionine. […]
Parental CHO-K1 cells were maintained at 37 °C in a humidified environment (5% CO2) and grown in Dulbecco’s Modified Eagle Medium (DMEM) F-12 media (Gibco, 11320033) supplemented with 10% FBS, 1% Glutamax (Gibco, 35050061) and 100units/ml penicillin and streptomycin (Gibco, 15140122. Cells were dissociated using a cell dissociation solution (Gibco, 13151-014), counted, and resuspended in complete culture media without antibiotics. Cells were then transiently transfected using Fugene6 (Promega) in a 384-well plate format (Corning, 3570). For each well, 7500 cells were transfected with 5 ng of receptor plasmid, 20 ng of carrier DNA (Promega, PAE4881) and 0.075 μl Fugene6 in a final volume of 25 μl. […]

hERG = hERG (Homo sapiens, UniProt Q12809); assay: hERG ion channel profiling, Qube384 automated patch clamp (standard and extended protocol); type: cell-based
From the text: 105 hERG, Nav1.5 and Cav1.2 Ion Channel Profiling
106 Ionic curr ents wer e evalu ated in the whole-cell con figuration using the Qube384 automated planar
107 patch clamp platform (Sophion Bioscience A/S, Ballerup, Denmark). QChip 384X plates,
108 containing 10 patch clamp holes per well, were used to maximize success rate, which was routinely
110 For hERG experiments, the external solution was composed of (in mM): 132 NaCl, 4 KCl, 1.8
111 CaCl2, 1.2 MgCl2, 10 HEPES, 11 Glucose, pH 7.4, 305 mOsM. […]
121 The hERG current was elicited from a holding potential of - 80 mV by a voltage step to +40 mV
122 for 500 ms, followed by a repolarizing ramp to - 80 mV at - 0.6 mV/ms. This pattern was repeated
123 at a rate of 0.05 Hz. Peak hERG current was measured during the ramp. […]
126 Nav1.5 current, from a holding potential of - 80 mV, a 200 ms prepulse to - 120 mV was used to
127 homogenize channel inactivation, followed by a 40 ms step to a test potential of - 15 mV.
128 Membrane potential was further depolarized to +40 mV for 200 ms to completely inactivate the
129 peak Nav1.5 current, followed by a ramp from +40 mV to - 80 mV (-1.2 mV/ms). This voltage
130 pattern was repeated at 0.1 Hz, with peak Nav1.5 defined as the maximum current during the step
131 to - 15 mV. All studies were conducted at 23° C.
132 Compounds were dissol ved and initially diluted in dimethyl sulfoxide (DMSO), with a final
133 dilution in external solution to generate final working concent rations. The final DMSO
134 concentration in all experiments was 0.33% (v/v).
135 For all protocols three vehicle periods each lasting 5 minutes were applied to establish a stable
136 baseline. For the standard protocol this was followed by the addition of increasing concentrations
137 of test compound, with each exposure lasting 5 minutes. For the “extended” protocol following
138 the three- vehi cle additional each well subsequentl y received a single concentration of compound.
139 This application was repeated three times for each well, via a flowthrough addition where the
140 solution was replaced wi th the same compound concentration with each addition. Each exposure
142 Patch clamp data were analyzed using Assay Software 6.4.72 (Sophion Bioscience A/S, Ballerup,
143 Denmark). Current amplitudes were determined by averaging the last 4 currents under each test
144 condition. The percentage inhibition of each compound was determined by taking the ratio of
145 current amplitude measured in the presence of various concentrations of the test compound
146 (ICompound) versus the vehicle control current (IVehicle):
148 A dose-response curve was generat ed and fit to the Hill equation by the Sophion Analyzer software
149 to determine an IC50 value for each compound. The minimum and the slope of the fit were free […]

hERG, sequence (Q12809 whole entry): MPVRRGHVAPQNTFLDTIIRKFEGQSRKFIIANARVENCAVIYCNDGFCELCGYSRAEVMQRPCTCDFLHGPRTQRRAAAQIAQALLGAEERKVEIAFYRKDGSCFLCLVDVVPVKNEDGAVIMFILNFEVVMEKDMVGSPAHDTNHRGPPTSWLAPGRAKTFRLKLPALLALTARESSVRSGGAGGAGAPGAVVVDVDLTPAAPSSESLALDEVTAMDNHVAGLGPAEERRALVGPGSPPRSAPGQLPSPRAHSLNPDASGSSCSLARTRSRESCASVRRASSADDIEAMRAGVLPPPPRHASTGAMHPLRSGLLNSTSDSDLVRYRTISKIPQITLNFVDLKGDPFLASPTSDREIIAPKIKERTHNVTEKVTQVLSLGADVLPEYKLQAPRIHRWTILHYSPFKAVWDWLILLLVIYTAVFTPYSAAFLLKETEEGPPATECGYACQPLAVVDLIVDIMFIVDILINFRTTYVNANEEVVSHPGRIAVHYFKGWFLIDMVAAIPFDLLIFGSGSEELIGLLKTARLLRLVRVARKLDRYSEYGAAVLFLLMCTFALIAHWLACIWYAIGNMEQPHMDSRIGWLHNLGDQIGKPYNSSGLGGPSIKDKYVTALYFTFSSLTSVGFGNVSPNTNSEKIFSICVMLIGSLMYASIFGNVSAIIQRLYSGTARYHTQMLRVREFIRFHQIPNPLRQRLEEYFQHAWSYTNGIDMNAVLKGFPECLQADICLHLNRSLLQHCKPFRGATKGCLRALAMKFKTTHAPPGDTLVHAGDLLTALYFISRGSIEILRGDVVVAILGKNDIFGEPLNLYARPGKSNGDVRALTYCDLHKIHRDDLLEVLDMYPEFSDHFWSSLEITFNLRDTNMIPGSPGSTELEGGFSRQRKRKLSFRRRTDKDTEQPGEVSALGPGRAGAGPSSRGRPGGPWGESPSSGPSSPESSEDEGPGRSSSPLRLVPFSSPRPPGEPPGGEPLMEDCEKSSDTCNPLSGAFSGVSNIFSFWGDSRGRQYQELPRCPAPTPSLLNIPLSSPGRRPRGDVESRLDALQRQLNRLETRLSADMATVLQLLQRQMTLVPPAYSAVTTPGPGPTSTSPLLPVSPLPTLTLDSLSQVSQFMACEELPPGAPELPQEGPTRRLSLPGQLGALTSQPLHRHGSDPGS
T1 sequence (Q9BZJ8 whole entry): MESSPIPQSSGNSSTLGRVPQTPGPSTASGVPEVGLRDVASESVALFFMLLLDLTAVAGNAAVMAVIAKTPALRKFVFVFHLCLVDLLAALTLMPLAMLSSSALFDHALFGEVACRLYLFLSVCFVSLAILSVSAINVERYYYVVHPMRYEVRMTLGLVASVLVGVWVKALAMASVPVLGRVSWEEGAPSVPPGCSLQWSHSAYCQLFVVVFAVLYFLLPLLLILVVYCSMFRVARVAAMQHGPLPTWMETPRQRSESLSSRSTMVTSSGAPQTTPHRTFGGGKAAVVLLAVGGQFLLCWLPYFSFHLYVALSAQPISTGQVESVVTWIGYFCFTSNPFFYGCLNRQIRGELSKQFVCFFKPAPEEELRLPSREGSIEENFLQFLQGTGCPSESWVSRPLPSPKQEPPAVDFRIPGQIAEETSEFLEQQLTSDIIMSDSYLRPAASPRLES

CCOc1cc(C)nc(N(CCOC)S(=O)(=O)c2ccc(NCc3c(F)cncc3F)nc2OC)n1 [Compound 1]
cell surface expression of HiBit-tagged wild-type GPR61 [1]: increased | IC50 (hERG; extended protocol, 1st period, read-out: Ion Channel Extended Protocol IC50 (nM), Period 1st): 36500 nM | IC50 (hERG; extended protocol, 2nd period, read-out: Ion Channel Extended Protocol IC50 (nM), Period 2nd): 28000 nM | IC50 (hERG; extended protocol, 3rd period, read-out: Ion Channel Extended Protocol IC50 (nM), Period 3rd): 18700 nM | IC50 (hERG; standard protocol, read-out: Patch IC50): 52900 nM

Reference: PMC10517971, “An inverse agonist of orphan receptor GPR61 acts by a G protein-competitive allosteric mechanism” (Nature Communications, 2023)
